Data as given in PubChem BioAssay (NCI).
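GI50 marks 50% less growth. TGI is the concentration that stops growth completely.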

How the values were obtained:
Assay in all cases: DTP human tumour cell line panel, 384-well format
[1] = system: M14 melanoma
[2] = system: MOLT-4 leukemia
[3] = system: RXF 393 renal
[4] = system: MDA-MB-435 melanoma
[5] = system: HT29 colon
[6] = system: SW-620 colon
[7] = system: HOP-92 NSCLC
[8] = system: SF-539 CNS
[9] = system: NCI-H322M lung
[10] = system: 786-0 renal
[11] = system: UO-31 renal
[12] = system: NCI/ADR-RES ovarian
[13] = system: HCT-116 colon
[14] = system: NCI-H226 lung
[15] = system: MCF7 breast
[16] = system: SN12C renal
[17] = system: U251 glioblastoma
[18] = system: CCRF-CEM leukemia
[19] = system: DU-145 prostate
[20] = system: T-47D breast
[21] = system: SF-268 CNS
[22] = system: EKVX NSCLC
[23] = system: BT-549 breast
[24] = system: KM12 colon
[25] = system: NCI-H522 lung
[26] = system: RPMI-8226 leukemia
[27] = system: OVCAR-8 ovarian
[28] = system: SK-MEL-2 melanoma
[29] = system: OVCAR-3 ovarian
[30] = system: MDA-MB-468 breast
[31] = system: K-562 leukemia
[32] = system: UACC-257 melanoma
[33] = system: HS 578T breast
[34] = system: TK-10 renal
[35] = system: OVCAR-5 ovarian
[36] = system: HCT-15 colon
[37] = system: SK-OV-3 ovarian
[38] = system: LOX IMVI melanoma
[39] = system: ACHN renal
[40] = system: NCI-H23 lung
[41] = system: MALME-3M melanoma
[42] = system: SNB-75 CNS
[43] = system: SF-295 CNS
[44] = system: OVCAR-4 ovarian
[45] = system: HOP-62 NSCLC
[46] = system: A549 NSCLC
[47] = system: SNB-19 CNS
[48] = system: MDA-MB-231 breast
[49] = system: UACC-62 melanoma
[50] = system: CAKI-1 renal
[51] = system: HL-60(TB) leukemia
[52] = system: A498 renal
[53] = system: IGROV1 ovarian
[54] = system: SK-MEL-28 melanoma
[55] = system: PC-3 prostate
[56] = system: NCI-H460 NSCLC
[57] = system: SK-MEL-5 melanoma
[58] = system: COLO 205 colon
[59] = system: SR leukemia

O=C1CCC(N2C(=O)c3ccccc3C2=O)C(=O)N1 (stereo unspecified) gave a GI50 [1] of over 100 µM, a TGI [1] of over 100 µM and a GI50 [2] of over 100 µM. The TGI [2] was over 100 µM, the GI50 [3] was over 100 µM and the TGI [3] was over 100 µM. The GI50 [4] was over 100 µM, the TGI [4] was over 100 µM and the GI50 [5] was over 100 µM. For the same molecule, the TGI [5] was over 100 µM, the GI50 [6] was over 100 µM and the TGI [6] was over 100 µM. The GI50 [7] was over 100 µM, the TGI [7] was over 100 µM and the GI50 [8] was over 100 µM. It also gave a TGI [8] of over 100 µM, a GI50 [9] of over 100 µM and a TGI [9] of over 100 µM. It also gave a GI50 [10] of over 100 µM, a TGI [10] of over 100 µM and a GI50 [11] of over 100 µM. For the same molecule, the TGI [11] was over 100 µM, the GI50 [12] was over 100 µM and the TGI [12] was over 100 µM. The GI50 [13] was over 100 µM, the TGI [13] was over 100 µM and the GI50 [14] was over 100 µM. The TGI [14] was over 100 µM, the GI50 [15] was over 100 µM and the TGI [15] was over 100 µM. It also gave a GI50 [16] of over 100 µM, a TGI [16] of over 100 µM and a GI50 [17] of over 100 µM. It also gave a TGI [17] of over 100 µM, a GI50 [18] of over 100 µM and a TGI [18] of over 100 µM. For the same molecule, the GI50 [19] was over 100 µM, the TGI [19] was over 100 µM and the GI50 [20] was over 100 µM. For the same molecule, the TGI [20] was over 100 µM, the GI50 [21] was over 100 µM and the TGI [21] was over 100 µM. The GI50 [22] was over 100 µM, the TGI [22] was over 100 µM and the GI50 [23] was over 100 µM. It also gave a TGI [23] of over 100 µM, a GI50 [24] of over 100 µM and a TGI [24] of over 100 µM. The GI50 [25] was over 100 µM, the TGI [25] was over 100 µM and the GI50 [26] was over 100 µM. For the same molecule, the TGI [26] was over 100 µM, the GI50 [27] was over 100 µM and the TGI [27] was over 100 µM. It also gave a GI50 [28] of over 100 µM, a TGI [28] of over 100 µM and a GI50 [29] of over 100 µM. For the same molecule, the TGI [29] was over 100 µM, the GI50 [30] was over 100 µM and the TGI [30] was over 100 µM. It also gave a GI50 [31] of over 100 µM, a TGI [31] of over 100 µM and a GI50 [32] of over 100 µM. For the same molecule, the TGI [32] was over 100 µM, the GI50 [33] was over 100 µM and the TGI [33] was over 100 µM. For the same molecule, the GI50 [34] was over 100 µM, the TGI [34] was over 100 µM and the GI50 [35] was over 100 µM. It also gave a TGI [35] of over 100 µM, a GI50 [36] of over 100 µM and a TGI [36] of over 100 µM. It also gave a GI50 [37] of over 100 µM, a TGI [37] of over 100 µM and a GI50 [38] of over 100 µM. It also gave a TGI [38] of over 100 µM, a GI50 [39] of over 100 µM and a TGI [39] of over 100 µM. The GI50 [40] was over 100 µM, the TGI [40] was over 100 µM and the GI50 [41] was over 100 µM. It also gave a TGI [41] of over 100 µM, a GI50 [42] of over 100 µM and a TGI [42] of over 100 µM. It also gave a GI50 [43] of over 100 µM, a TGI [43] of over 100 µM and a GI50 [44] of over 100 µM. The TGI [44] was over 100 µM, the GI50 [45] was over 100 µM and the TGI [45] was over 100 µM. The GI50 [46] was over 100 µM, the TGI [46] was over 100 µM and the GI50 [47] was over 100 µM. It also gave a TGI [47] of over 100 µM, a GI50 [48] of over 100 µM and a TGI [48] of over 100 µM. For the same molecule, the GI50 [49] was over 100 µM, the TGI [49] was over 100 µM and the GI50 [50] was over 100 µM. For the same molecule, the TGI [50] was over 100 µM, the GI50 [51] was over 100 µM and the TGI [51] was over 100 µM. The GI50 [52] was over 100 µM, the TGI [52] was over 100 µM and the GI50 [53] was over 100 µM. The TGI [53] was over 100 µM, the GI50 [54] was over 100 µM and the TGI [54] was over 100 µM. The GI50 [55] was over 100 µM and the TGI [55] was over 100 µM.

Molecule Cn1cc(-c2ccc3nnc(Sc4ccc5ncccc5c4)n3n2)cn1 has a GI50 [1] of over 100 µM, a TGI [1] of over 100 µM and a GI50 [2] of over 100 µM. For the same molecule, the TGI [2] was over 100 µM, the GI50 [3] was 38.2 µM and the TGI [3] was over 100 µM. The GI50 [4] was over 100 µM, the TGI [4] was over 100 µM and the GI50 [5] was over 100 µM. The TGI [5] was over 100 µM, the GI50 [6] was over 100 µM and the TGI [6] was over 100 µM. The GI50 [7] was over 100 µM, the TGI [7] was over 100 µM and the GI50 [8] was over 100 µM. For the same molecule, the TGI [8] was over 100 µM, the GI50 [9] was over 100 µM and the TGI [9] was over 100 µM. For the same molecule, the GI50 [10] was over 100 µM, the TGI [10] was over 100 µM and the GI50 [11] was over 100 µM. For the same molecule, the TGI [11] was over 100 µM, the GI50 [12] was over 100 µM and the TGI [12] was over 100 µM. For the same molecule, the GI50 [13] was over 100 µM, the TGI [13] was over 100 µM and the GI50 [14] was over 100 µM. The TGI [14] was over 100 µM, the GI50 [15] was over 100 µM and the TGI [15] was over 100 µM. It also gave a GI50 [16] of over 100 µM, a TGI [16] of over 100 µM and a GI50 [17] of over 100 µM. For the same molecule, the TGI [17] was over 100 µM, the GI50 [18] was over 100 µM and the TGI [18] was over 100 µM. For the same molecule, the GI50 [19] was over 100 µM, the TGI [19] was over 100 µM and the GI50 [20] was over 100 µM. It also gave a TGI [20] of over 100 µM, a GI50 [21] of over 100 µM and a TGI [21] of over 100 µM. It also gave a GI50 [56] of over 100 µM, a TGI [56] of over 100 µM and a GI50 [22] of over 100 µM. For the same molecule, the TGI [22] was over 100 µM, the GI50 [23] was over 100 µM and the TGI [23] was over 100 µM. For the same molecule, the GI50 [24] was over 100 µM, the TGI [24] was over 100 µM and the GI50 [25] was over 100 µM. It also gave a TGI [25] of over 100 µM, a GI50 [26] of over 100 µM and a TGI [26] of over 100 µM. The GI50 [57] was over 100 µM, the TGI [57] was over 100 µM and the GI50 [28] was over 100 µM. It also gave a TGI [28] of over 100 µM, a GI50 [29] of over 100 µM and a TGI [29] of over 100 µM. It also gave a GI50 [30] of 13.8 µM, a TGI [30] of 48.4 µM and a GI50 [31] of over 100 µM. For the same molecule, the TGI [31] was over 100 µM, the GI50 [32] was over 100 µM and the TGI [32] was over 100 µM. It also gave a GI50 [33] of 61.6 µM, a TGI [33] of over 100 µM and a GI50 [34] of over 100 µM. It also gave a TGI [34] of over 100 µM, a GI50 [35] of over 100 µM and a TGI [35] of over 100 µM. It also gave a GI50 [36] of over 100 µM, a TGI [36] of over 100 µM and a GI50 [37] of over 100 µM. For the same molecule, the TGI [37] was over 100 µM, the GI50 [38] was over 100 µM and the TGI [38] was over 100 µM. For the same molecule, the GI50 [39] was over 100 µM, the TGI [39] was over 100 µM and the GI50 [40] was over 100 µM. For the same molecule, the TGI [40] was over 100 µM, the GI50 [41] was over 100 µM and the TGI [41] was over 100 µM. The GI50 [42] was over 100 µM, the TGI [42] was over 100 µM and the GI50 [58] was over 100 µM. The TGI [58] was over 100 µM, the GI50 [59] was 27.2 µM and the TGI [59] was over 100 µM. For the same molecule, the GI50 [43] was 46.3 µM, the TGI [43] was over 100 µM and the GI50 [44] was over 100 µM. It also gave a TGI [44] of over 100 µM, a GI50 [45] of over 100 µM and a TGI [45] of over 100 µM. The GI50 [46] was over 100 µM, the TGI [46] was over 100 µM and the GI50 [47] was over 100 µM. It also gave a TGI [47] of over 100 µM, a GI50 [48] of over 100 µM and a TGI [48] of over 100 µM. It also gave a GI50 [49] of over 100 µM, a TGI [49] of over 100 µM and a GI50 [50] of over 100 µM. It also gave a TGI [50] of over 100 µM, a GI50 [51] of over 100 µM and a TGI [51] of over 100 µM. The GI50 [52] was over 100 µM, the TGI [52] was over 100 µM and the GI50 [53] was over 100 µM. For the same molecule, the TGI [53] was over 100 µM, the GI50 [54] was over 100 µM and the TGI [54] was over 100 µM. It also gave a GI50 [55] of over 100 µM and a TGI [55] of over 100 µM.
